Measured values published in PubChem BioAssay AID1996.
Values after ≈ are worked out from the molar mass of the structure shown.

Details: buffer; pH 7.4; 200.0 µM

Compound | solubility kinetic
COc1cccc2c(Cl)c(CCCl)c(C)nc12 | 1.1 µg/mL (≈ 4.07 µM)
CC1CCCC(C)N1C(=O)COC(=O)Cc1ccc(F)cc1 (centres undefined) | 30.9 µg/mL (≈ 101 µM)
O=[N+]([O-])c1cc(-c2ncccn2)c([N+](=O)[O-])s1 | 34.8 µg/mL (≈ 138 µM)
O=C(c1ccccc1)N1CCN(CCc2ccccn2)CC1 | > 44.3 µg/mL
Cc1ccc(OCCCCN2CCCCC2)c(C)c1 | 19.6 µg/mL (≈ 75 µM)
COC(=O)c1c(C(=O)OC)c(-c2ccc(F)cc2)n2c1CS(=O)C2 (centres undefined) | > 52.7 µg/mL
COC(=O)n1c(=O)oc2ccc(S(=O)(=O)N3CCCCC3)cc21 | > 51.1 µg/mL
Cl.c1ccc2c(N3CCOCC3)c3c(nc2c1)CCC3 | > 43.6 µg/mL
Cl.O=C1NCC2(CCN(CCc3ccccc3)CC2)O1 | > 44.5 µg/mL
Nc1nc(-c2ccc3ccccc3c2)cs1 | 11.8 µg/mL (≈ 52.1 µM)
CCCCN1C(=O)C(=O)N(CC(=O)c2ccc[nH]2)C1=O | > 41.6 µg/mL
CC(C)c1ccc(NC(=O)/C(C#N)=C/c2ccncc2)cc1 | 4.6 µg/mL (≈ 15.8 µM)
CCN(CC)C(=O)CSc1ncccc1-c1nc2ccccc2[nH]1 | 17.6 µg/mL (≈ 51.7 µM)
CC(Sc1ncccn1)C(=O)N1CCc2ccccc21 (centres undefined) | 33.3 µg/mL (≈ 117 µM)
COc1ccc(NC(=O)CCSCCc2ccccn2)cc1OC | 49.1 µg/mL (≈ 142 µM)
CN(CC(=O)Nc1ccc(F)c(F)c1F)C(=O)C1=COCCO1 | > 49.5 µg/mL
CN(Cc1ccccc1)S(=O)(=O)c1ccc(Cl)c(C(=O)N2CCC(C(N)=O)CC2)c1 | > 67.5 µg/mL
C#CCn1c(=O)cc(C)c2ccccc21 | > 29.6 µg/mL
O=c1c2ccccc2nc(-c2ccccc2)n1O | > 35.7 µg/mL
O=C(NCCC(=O)N1CCCC1)c1ccccc1Cl | > 42.1 µg/mL

Compound | solubility kinetic
COc1ccc(S(=O)(=O)N2CCCCC2)cc1NC(=O)COC(=O)c1ccco1 | 5.8 µg/mL (≈ 13.7 µM)
Cc1ccc(Nc2nc(N)c([N+](=O)[O-])c(NCCO)n2)cc1C | 2.1 µg/mL (≈ 6.6 µM)
COc1ccc(CNc2nc3ccccc3n2C(C)C)cc1 | 5.7 µg/mL (≈ 19.3 µM)
O=C(Nc1cc(C(F)(F)F)ccc1Cl)c1cccnc1 | 32.7 µg/mL (≈ 109 µM)
O=C(Nc1nc(-c2cccnc2)cs1)c1ccccc1F | < 0.2 µg/mL
CN(C)c1cc[n+](CC(=O)Nc2ccccc2C(F)(F)F)cc1.[Cl-] | > 54 µg/mL
Cc1ccccc1Cn1c(=O)n(C)c(=O)c2sccc21 | 5.9 µg/mL (≈ 20.6 µM)
NC(=O)c1ccccc1NC(=O)CCn1c(=S)oc2ccccc21 | 43.2 µg/mL (≈ 127 µM)
N#C/C(=C/c1cc[nH]c1)C(N)=S | > 26.6 µg/mL
Cl.ClC(CCN1CCN(Cc2ccccc2)CC1)c1ccccc1 (centres undefined) | > 60.3 µg/mL
Cc1cc(C)c(NC(=S)NC(CO)(CO)CO)c(C)c1 | > 44.8 µg/mL
Cn1cccc1C(=O)OCC(=O)Nc1ccc2c(c1)OCCO2 | 4.8 µg/mL (≈ 15.2 µM)
Cc1cc(=O)[nH]c(SCC(=O)N2CCCC2)n1 | > 38 µg/mL
CCC(=O)N1CCCc2ccccc21 | 22.4 µg/mL (≈ 118 µM)
O=C(CSc1nc2cc(Cl)ccc2o1)NC1CC1 | > 42.4 µg/mL
CCOC(=O)N1CCC(NC(=O)c2cccs2)CC1 | 37.8 µg/mL (≈ 134 µM)
CCOc1ccccc1NC(=O)COc1cccnc1[N+](=O)[O-] | 7.5 µg/mL (≈ 23.6 µM)
CC1(C)C(=O)Nc2ccccc2N1C(=O)COC(=O)Cc1ccccc1F | > 55.6 µg/mL
Cn1c(=O)c2c([nH]c(=O)n2C)n(Cc2ccccc2)c1=O | > 42.9 µg/mL
COc1cc(CN=C(C)c2c(O)n(C3CCCCC3)c(=O)[nH]c2=O)cc(OC)c1 | < 0.3 µg/mL

Compound | solubility kinetic
COc1ccc(CNC(=O)CC(C)c2ccccc2)cc1 (centres undefined) | 36.9 µg/mL (≈ 130 µM)
CC(C)(C)C(O)(CC#CCN1CCCC1)c1ccccc1.Cl (centres undefined) | > 48.3 µg/mL
COc1ccccc1NC(=O)CNC(=O)CC12CC3CC(CC(C3)C1)C2 | 43.1 µg/mL (≈ 121 µM)
COC(=O)c1ccc(C2C(C#N)=C(N)Oc3cc(N)ccc32)cc1 (centres undefined) | 11.2 µg/mL (≈ 34.9 µM)
O=C(/C=C/c1cccc(F)c1)OCC(=O)N1CCc2ccccc21 | 3.2 µg/mL (≈ 9.84 µM)
CC(=O)Nc1ccc(S(=O)(=O)NC(C)c2ccncc2)cc1 (centres undefined) | > 47.9 µg/mL
CCOC(=O)c1sc2nc(C)nc(N3CCN(S(=O)(=O)c4ccccc4)CC3)c2c1C | 2.5 µg/mL (≈ 5.43 µM)
O=C(O)C1=C(C(=O)Nc2cc(C(F)(F)F)ccc2Cl)CCCC1 | 12.5 µg/mL (≈ 35.9 µM)
O=C(CC(c1ccccc1)c1ccccc1)Nc1ccc(O)cc1 | 31.7 µg/mL (≈ 99.9 µM)
O=C(CNC(=O)c1cccs1)OCc1c(F)cccc1Cl | 42.4 µg/mL (≈ 129 µM)
Cc1cc(C)c(N=C2C(=O)Nc3ccccc32)c(C)c1 | > 39.6 µg/mL
Cc1ccc(NC(=O)c2c(C)noc2C)cc1S(=O)(=O)N1CCOCC1 | > 56.9 µg/mL
CC(C)CCC1(C)NC(=O)N(CC(=O)Nc2ccc3c(c2)OCCO3)C1=O (centres undefined) | 49.6 µg/mL (≈ 132 µM)
CC(=O)Nc1ccc(CC(=O)O)cc1 | > 29 µg/mL
Cc1cc(C)cc(NC(=O)NCC(O)COc2ccc([N+](=O)[O-])cc2)c1 (centres undefined) | 6.1 µg/mL (≈ 17 µM)
CN1CCN(C(=O)CN(C)S(=O)(=O)c2ccc(F)cc2)CC1 | 44.7 µg/mL (≈ 136 µM)
CC1CCC(NC(=O)C(Cc2ccccc2)n2cccc2)CC1 (centres undefined) | 19.2 µg/mL (≈ 61.8 µM)
[O-][n+]1ccccc1/C=C/c1ccccc1 | > 29.6 µg/mL
CC(=NCCC1=CCCCC1)c1c(O)n(-c2ccccc2)c(=O)[nH]c1=O | 10 µg/mL (≈ 28.3 µM)
